ChEMBL document CHEMBL5728584, “Bicyclic amide compounds and methods of use thereof” (2021)

Biological target: T1, Receptor-interacting serine/threonine-protein kinase 1 (Homo sapiens, UniProt Q13546)
T1 sequence (Q13546 whole entry): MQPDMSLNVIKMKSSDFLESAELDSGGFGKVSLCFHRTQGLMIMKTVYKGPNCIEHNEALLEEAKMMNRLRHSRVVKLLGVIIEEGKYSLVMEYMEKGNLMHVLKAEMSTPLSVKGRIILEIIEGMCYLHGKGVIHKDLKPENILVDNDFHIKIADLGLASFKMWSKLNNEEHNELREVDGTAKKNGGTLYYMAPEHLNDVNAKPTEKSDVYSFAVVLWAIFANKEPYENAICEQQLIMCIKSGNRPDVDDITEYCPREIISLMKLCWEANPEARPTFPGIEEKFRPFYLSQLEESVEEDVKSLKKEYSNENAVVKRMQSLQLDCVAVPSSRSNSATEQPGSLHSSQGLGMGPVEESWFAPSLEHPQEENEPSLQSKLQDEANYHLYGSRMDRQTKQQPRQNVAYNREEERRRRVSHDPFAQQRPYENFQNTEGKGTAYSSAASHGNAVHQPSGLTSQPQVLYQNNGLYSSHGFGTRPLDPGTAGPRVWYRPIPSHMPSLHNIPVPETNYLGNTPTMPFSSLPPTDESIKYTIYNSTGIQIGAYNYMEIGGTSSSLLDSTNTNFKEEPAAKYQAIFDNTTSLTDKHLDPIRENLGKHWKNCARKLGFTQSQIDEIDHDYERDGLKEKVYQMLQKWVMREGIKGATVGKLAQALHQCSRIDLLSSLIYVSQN
Experiment: Biochemical Assay: The ability of the receptor interacting protein kinase (RIPK1) to catalyze the hydrolysis of adenosine-5′-triphosphate (ATP) is monitored using the Transcreener ADP (adenosine-5′-diphosphate) assay (BellBrook Labs). Purified human RIP1 kinase domain (2-375) (50 nM) derived from a baculovirus-infected insect cell expression system is incubated with test compounds for 2 hours in 50 mM Hepes buffer (pH 7.5) containing 30 mM MgCl2, 1 mM dithiothreitol, 50 uM ATP, 0.002% Brij-35, and 0.5% dimethyl sulfoxide (DMSO). Reactions are quenched by the addition of 1× Bell Brooks Stop buffer B (20 mM Hepes (ph7.5), 40 mM ethylenediaminetetraacetic acid and 0.02% Brij-35) containing an additional 12 mM EDTA and 55 ug/mL ADP2 antibody and 4 nM ADP-AlexaFluor® 633 tracer. The tracer bound to the antibody is displaced by the ADP generated during the RIP1K reaction, which causes a decrease in fluorescence polarization that is measured by laser excitation at 633 nm with a FP microplate reader M1000.

Ki: 2.1 µM
SMILES: O=C(c1nc2n(n1)CCOC2c1ccccc1)N1CC(F)C1 (racemic)
